# Laboratory results taken from patent US20240358829A1, “Lymphocyte Population and Methods for Producing Same” (AVM Biotechnology, LLC, priority 2021, published 2024).
# Where “and” joins values, the source holds several entries; their conditions need not be identical. Equal entries are not always repeated.
# Test system: CD56+γδTCR+iTCR+ cells
# Experiment: AVM0703 R/R NHL clinical trial, whole blood flow cytometry
# Type: in vivo, human
# Description: FIG. 15. 101-001 size (FSC) and complexity (SSC) scattergram of AVM_NKT cells. […] Blood was stained with panel antibodies based for 15 minutes in the dark at Room Temperature. RBC lysis was performed by addition of 1 mL of 1×BD FACS Lysing Solution (BD Bioscience), diluted with MilliQ water, for 10 minutes in the dark at Room Temperature. Samples were washed with 2 mL 1×DPBS CMF (Gibco) and resuspended in 300 μL of 1×DPBS CMF before 5 μL of 7AAD (Biolegend) was added to each sample for live/dead cell determination and incubated for 5 minutes in the dark at Room Temperature. 250 μL of sample were taken up for acquisition on Macsquant 16 Flow Cytometer (Miltenyi, Serial #40150). Live white blood cells were gated for CD56+ cells co-expressing gamma delta TCR and the invariant TCR and labelled red in the forward versus side scattergram. Red-labelled cells fall within the forward versus side scattergrams where large granular cells such as neutrophils and large granular lymphocytes are known to fall.
# For characterisation of the induced/mobilized population of NKT-like cells (AVM-NKT) in humans, whole blood from human subjects was drawn in K2 EDTA Vacutainer tube (367862, BD Biosciences, NJ) and shipped to AVM Biotechnology at room temperature. 100 μl of whole blood was stained with the following antibodies: CD45 AF700 (2D1), CD16 APC (3G8), INKT PECy7 (6B11), CD8 PE (SK1), CD14 FITC (M5E2), CD56 BV650 (5.1H11), γδTCR BV510 (B1), CD19 BV421 (HIB19), NKp44 APC (P44-8) (all from Biolegend, San Diego, CA) and CD3 APCVio770 (BW264/56), (Miltenyi Biotec, San Jose, CA), 7-AAD, (Biolegend, San Diego CA) was included to distinguish the live and dead cells.
# [1] = patient 108-001, 1st 9 mg/kg infusion, 1 hour
# [2] = patient 108-001, 1st 9 mg/kg infusion, Day 3
# [3] = patient 108-001, 1st 9 mg/kg infusion, Day 14
# [4] = patient 108-001, 2nd 9 mg/kg infusion, 1 hour
# [5] = patient 108-001, 2nd 9 mg/kg infusion, Day 3
# [6] = patient 108-001, 2nd 9 mg/kg infusion, Day 14
# [7] = patient 108-002, 18 mg/kg, 1 hour post-infusion
# [8] = patient 108-002, 18 mg/kg, Day 3
# [9] = patient 108-002, 18 mg/kg, Day 14
# [10] = patient 108-003, 12 mg/kg, 1 hour post-infusion
# [11] = patient 108-003, 12 mg/kg, Day 3
# [12] = patient 108-003, 12 mg/kg, Day 14
compound,measurement,setting,value
"C[C@@H]1C[C@H]2[C@@H]3CCC4=CC(=O)C=C[C@]4(C)[C@@]3(F)[C@@H](O)C[C@]2(C)[C@@]1(O)C(=O)COP(=O)(O)O [AVM0703, dexamethasone sodium phosphate]",CD45 (as % of CD56+ γδTCR+ iTCR+ cells),[1],96%
same,CD56+ γδTCR+ iTCR+ % of total WBCs,[1],0.72%
same,CD56+ γδTCR+ iTCR+ cells/uL,[1],112 cells/uL
same,CD3 (as % of CD56+ γδTCR+ iTCR+ cells),[2],24%
same,CD8hi (as % of CD56+ γδTCR+ iTCR+ cells),[2],2%
same,CD8med (as % of CD56+ γδTCR+ iTCR+ cells),[2],16%
same,CD14+ (as % of CD56+ γδTCR+ iTCR+ cells),[2],50%
same,CD16 (as % of CD56+ γδTCR+ iTCR+ cells),[2],80%
same,CD19+ (as % of CD56+ γδTCR+ iTCR+ cells),[2],24%
same,CD45 (as % of CD56+ γδTCR+ iTCR+ cells),[2],98%
same,CD56+ γδTCR+ iTCR+ % of total WBCs,[2],0.22%
same,CD56+ γδTCR+ iTCR+ cells/uL,[2],36 cells/uL and 36.0 cells/uL
same,CD56+ γδTCR+ iTCR+ % of total WBCs,[3],0.06%
same,CD56+ γδTCR+ iTCR+ cells/uL,[3],3 cells/uL
same,CD3 (as % of CD56+ γδTCR+ iTCR+ cells),[4],23%
same,CD8hi (as % of CD56+ γδTCR+ iTCR+ cells),[4],2.2%
same,CD8med (as % of CD56+ γδTCR+ iTCR+ cells),[4],4.4%
same,CD14+ (as % of CD56+ γδTCR+ iTCR+ cells),[4],81%
same,CD16 (as % of CD56+ γδTCR+ iTCR+ cells),[4],89%
same,CD19+ (as % of CD56+ γδTCR+ iTCR+ cells),[4],26%
same,CD45 (as % of CD56+ γδTCR+ iTCR+ cells),[4],13%
same,CD56+ γδTCR+ iTCR+ % of total WBCs,[4],0.84%
same,CD56+ γδTCR+ iTCR+ cells/uL,[4],26 cells/uL
same,CD3 (as % of CD56+ γδTCR+ iTCR+ cells),[5],49%
same,CD8hi (as % of CD56+ γδTCR+ iTCR+ cells),[5],1%
same,CD8med (as % of CD56+ γδTCR+ iTCR+ cells),[5],55%
same,CD14+ (as % of CD56+ γδTCR+ iTCR+ cells),[5],35%
same,CD16 (as % of CD56+ γδTCR+ iTCR+ cells),[5],58%
same,CD19+ (as % of CD56+ γδTCR+ iTCR+ cells),[5],17%
same,CD45 (as % of CD56+ γδTCR+ iTCR+ cells),[5],11%
same,CD56+ γδTCR+ iTCR+ % of total WBCs,[5],0.19%
same,CD56+ γδTCR+ iTCR+ cells/uL,[5],10.2 cells/uL
same,CD3 (as % of CD56+ γδTCR+ iTCR+ cells),[6],22%
same,CD8hi (as % of CD56+ γδTCR+ iTCR+ cells),[6],4%
same,CD8med (as % of CD56+ γδTCR+ iTCR+ cells),[6],20%
same,CD14+ (as % of CD56+ γδTCR+ iTCR+ cells),[6],76%
same,CD16 (as % of CD56+ γδTCR+ iTCR+ cells),[6],82%
same,CD19+ (as % of CD56+ γδTCR+ iTCR+ cells),[6],28%
same,CD45 (as % of CD56+ γδTCR+ iTCR+ cells),[6],84%
same,CD56+ γδTCR+ iTCR+ % of total WBCs,[6],0.43%
same,CD56+ γδTCR+ iTCR+ cells/uL,[6],20 cells/uL
same,AVM_NKT CD56+γδTCR+iTCR+ cells in the blood,"patient 108-001, after the third 9 mg/kg infusion",not evident in the blood
same,CD56+gdTCR+ inv TCR+ cells induced,"patient 108-002, 18 mg/kg",YES
same,CD3 (as % of CD56+ γδTCR+ iTCR+ cells),[7],83.2%
same,CD8hi (as % of CD56+ γδTCR+ iTCR+ cells),[7],88%
same,CD8med (as % of CD56+ γδTCR+ iTCR+ cells),[7],12.3%
same,CD14+ (as % of CD56+ γδTCR+ iTCR+ cells),[7],79%
same,CD16 (as % of CD56+ γδTCR+ iTCR+ cells),[7],87%
same,CD19+ (as % of CD56+ γδTCR+ iTCR+ cells),[7],98%
same,CD45 (as % of CD56+ γδTCR+ iTCR+ cells),[7],100%
same,CD56+ γδTCR+ iTCR+ cells/uL,[7],49.5 cells/uL
same,CD56+ γδTCR+ iTCR+ % of total WBCs,[8],0.04%
same,CD56+ γδTCR+ iTCR+ cells/uL,[8],2.3 cells/uL
same,CD3 (as % of CD56+ γδTCR+ iTCR+ cells),[9],72%
same,CD8hi (as % of CD56+ γδTCR+ iTCR+ cells),[9],73%
same,CD8med (as % of CD56+ γδTCR+ iTCR+ cells),[9],16.5%
same,CD14+ (as % of CD56+ γδTCR+ iTCR+ cells),[9],80%
same,CD16 (as % of CD56+ γδTCR+ iTCR+ cells),[9],41.2%
same,CD19+ (as % of CD56+ γδTCR+ iTCR+ cells),[9],80%
same,CD45 (as % of CD56+ γδTCR+ iTCR+ cells),[9],84%
same,CD56+ γδTCR+ iTCR+ % of total WBCs,[9],0.25%
same,CD56+ γδTCR+ iTCR+ cells/uL,[9],9.7 cells/uL
same,CD56+gdTCR+ inv TCR+ cells induced,"patient 108-003, 12 mg/kg",YES
same,CD3 (as % of CD56+ γδTCR+ iTCR+ cells),[10],14%
same,CD8hi (as % of CD56+ γδTCR+ iTCR+ cells),[10],1.7%
same,CD8med (as % of CD56+ γδTCR+ iTCR+ cells),[10],9%
same,CD14+ (as % of CD56+ γδTCR+ iTCR+ cells),[10],43%
same,CD16 (as % of CD56+ γδTCR+ iTCR+ cells),[10],85%
same,CD19+ (as % of CD56+ γδTCR+ iTCR+ cells),[10],40%
same,CD45 (as % of CD56+ γδTCR+ iTCR+ cells),[10],95%
same,CD56+ γδTCR+ iTCR+ % of total WBCs,[10],0.4%
same,CD56+ γδTCR+ iTCR+ cells/uL,[10],31.8 cells/uL
same,CD3 (as % of CD56+ γδTCR+ iTCR+ cells),[11],80%
same,CD8hi (as % of CD56+ γδTCR+ iTCR+ cells),[11],12.6%
same,CD8med (as % of CD56+ γδTCR+ iTCR+ cells),[11],45%
same,CD14+ (as % of CD56+ γδTCR+ iTCR+ cells),[11],68%
same,CD16 (as % of CD56+ γδTCR+ iTCR+ cells),[11],75%
same,CD19+ (as % of CD56+ γδTCR+ iTCR+ cells),[11],11.5%
same,CD45 (as % of CD56+ γδTCR+ iTCR+ cells),[11],67%
same,CD56+ γδTCR+ iTCR+ % of total WBCs,[11],0.6%
same,CD56+ γδTCR+ iTCR+ cells/uL,[11],58.4 cells/uL
same,CD3 (as % of CD56+ γδTCR+ iTCR+ cells),[12],90%
same,CD8hi (as % of CD56+ γδTCR+ iTCR+ cells),[12],8%
same,CD8med (as % of CD56+ γδTCR+ iTCR+ cells),[12],84%
same,CD14+ (as % of CD56+ γδTCR+ iTCR+ cells),[12],87%
same,CD16 (as % of CD56+ γδTCR+ iTCR+ cells),[12],89%
same,CD19+ (as % of CD56+ γδTCR+ iTCR+ cells),[12],12.4%
same,CD45 (as % of CD56+ γδTCR+ iTCR+ cells),[12],94%
same,CD56+ γδTCR+ iTCR+ % of total WBCs,[12],0.83%
same,CD56+ γδTCR+ iTCR+ cells/uL,[12],94 cells/uL
same,CD56+γδTCR+invTCR+ cells in blood,"patient 108-004, 12 mg/kg, one hour, 3 days or 14 days after infusion (pre-infusion 0.09%, 4.6 cells/uL)",no increase
